Results: US11478474B2, “2-(3′-(hydroxymethyl)-1-methyl-5-((5-(2-methyl-4-(oxetan-3-yl)piperazin-1-yl)pyridin-2-yl)amino)-6-oxo-1,6-dihydro-[3,4′-bipyridin]-2′-yl)-7,7-dimethyl-7,8-dihydro-2H-cyclopenta[4,5]pyrrolo[1,2-a]pyrazin-1(6H)-one as a BTK inhibitor” (HUTCHISON MEDIPHARMA LIMITED, priority 2020, dated 2022)

How the values were obtained:
BTK recombinant protein = BTK recombinant protein (Homo sapiens (Human), UniProt Q06187); assay: Determination of biochemical BTK (Z'-LYTE kinase assay)
Outline: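 Human BTK recombinant kinase (3.32 nM final) was preincubated with compound for 30 min at 4 °C. Reaction ran 1 h at room temperature with Tyr01 FRET peptide (2 μM) and ATP (32 μM); development protease then added. Coumarin 445 nm/fluorescein 520 nm emission ratio (400 nm excitation) gave inhibition across 8 concentrations, 3000–1.37 nM.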

[1] = biological target: phosphorylated BTK in Ramos cells (Homo sapiens (Human), UniProt Q06187); assay: Determination of phosphorylated BTK in Ramos cells (BTK phospho-Y223 HTRF); assay type: cell-based; conditions: anti-human IgM + hydrogen peroxide stimulation
Chain of phosphorylated BTK in Ramos cells (Q06187 whole entry): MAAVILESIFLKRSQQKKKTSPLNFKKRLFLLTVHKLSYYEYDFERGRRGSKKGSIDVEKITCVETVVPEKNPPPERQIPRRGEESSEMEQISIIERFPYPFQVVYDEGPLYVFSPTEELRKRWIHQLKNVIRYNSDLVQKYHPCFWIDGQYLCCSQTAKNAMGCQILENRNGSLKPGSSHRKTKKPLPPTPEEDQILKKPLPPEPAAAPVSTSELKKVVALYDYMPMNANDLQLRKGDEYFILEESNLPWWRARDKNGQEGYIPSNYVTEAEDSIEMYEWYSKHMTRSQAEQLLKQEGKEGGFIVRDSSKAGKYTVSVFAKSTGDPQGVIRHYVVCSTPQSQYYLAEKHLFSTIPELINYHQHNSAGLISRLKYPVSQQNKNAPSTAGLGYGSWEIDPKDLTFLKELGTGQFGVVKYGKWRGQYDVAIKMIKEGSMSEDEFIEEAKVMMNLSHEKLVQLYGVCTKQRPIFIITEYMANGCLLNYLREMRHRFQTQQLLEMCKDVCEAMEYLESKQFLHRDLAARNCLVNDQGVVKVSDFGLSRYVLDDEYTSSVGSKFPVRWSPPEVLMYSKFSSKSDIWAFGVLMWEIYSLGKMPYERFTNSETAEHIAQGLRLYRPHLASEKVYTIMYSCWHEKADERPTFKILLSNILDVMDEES
Outline: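 BTK Y223 phosphorylation measured by HTRF (665/615 nm) in lysates of Ramos cells. Cells were serum-starved 2 h, exposed to compound for 1 h (final 0.00018–3.0 μM, 0.3% DMSO), then stimulated 10 min with 10 μg/mL anti-IgM and 3.3 mM H2O2. IC50 derived from percent inhibition between unstimulated and stimulated controls.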

Chain of BTK recombinant protein (Q06187 whole entry): as above

| Structure (SMILES) | IC50 (BTK recombinant protein) [nM] | IC50 [1] [nM] |
| --- | --- | --- |
| COCCN1CCn2nc(Nc3cc(-c4ccnc(-n5ncn6c7c(cc6c5=O)CC(C)(C)C7)c4CO)cn(C)c3=O)cc2[C@@H]1C [Compound 119, 2-(3′-(hydroxymethyl)-5-((5-(2-methoxyethyl)-4-methyl-4,5,6,7-tetrahydropyrazolo[1,5-a]pyrazin-2-yl) amido)-1-methyl-6-oxo-1,6-dihydro-[3,4′-bispyridin]-2′-yl)-7,7-dimethyl-7,8-dihydro-2H-cyclopenta[4,5]pyrrolo[1,2-d][1,2,4]triazin-1(6H)-one optically Pure] | 7 | 2 |
| CCn1cc(-c2ccnc(-n3ccn4c5c(cc4c3=O)CC(C)(C)C5)c2CO)cc(Nc2ccc(N3C[C@@H](C)N(C4COC4)C[C@@H]3C)cn2)c1=O [Compound 215] | 31 | 51 |
| CC(C)Nc1cc(-c2ccnc(-n3ccn4c5c(cc4c3=O)CC(C)(C)C5)c2CO)cn(C)c1=O [Compound 40] | > 3000 | > 3000 |
| CC[C@H]1CN(C2COC2)CCN1c1ccc(Nc2cc(-c3ccnc(-n4ccn5c6c(cc5c4=O)CC(C)(C)C6)c3CO)cn(C)c2=O)nc1 [Compound 91] | 17 | 4 |
| Cn1cc(-c2ccnc(-n3ccn4c5c(cc4c3=O)CC(C)(C)C5)c2CO)cc(Nc2ccc(N3CCN(C4COC4)CC3(C)C)cn2)c1=O [Compound 95] | 10 | 3 |
| COCCN1CCn2nc(Nc3cc(-c4ccnc(-n5ncn6c7c(cc6c5=O)CC(C)(C)C7)c4CO)cn(C)c3=O)cc2C1 [Compound 107] | 12 | 2 |
| Cn1cc(-c2ccnc(-n3ccn4c5c(cc4c3=O)CC(C)(C)C5)c2CO)cc(Nc2ccc(N3C[C@@H]4C[C@H]3CN4C3COC3)cn2)c1=O [Compound 230] | 29 | 20 |
| Cn1cc(-c2ccnc(-n3ccn4c5c(cc4c3=O)CC(C)(C)C5)c2CO)cc(Nc2ccccn2)c1=O [Compound 55] | 19 | 8 |
| COCc1cc(Nc2cc(-c3ccnc(-n4ccn5c6c(cc5c4=O)CC(C)(C)C6)c3CO)cn(C)c2=O)nn1C [Compound 154] | 8 | 13 |
| Cn1nc(-c2ccnc(-n3ccn4c5c(cc4c3=O)CC(C)(C)C5)c2CO)cc(Nc2cn(CC(F)(F)F)nn2)c1=O [Compound 33] | 25 | 26 |
| C[C@H]1CN(C2COC2)CCN1c1ccc(Nc2cc(-c3ccnc(-n4ccn5c6c(cc5c4=O)CCCCC6)c3CO)cn(C)c2=O)nc1 [Compound 92] | 10 | 7 |
| Cn1cc(-c2ccnc(-n3ncn4c5c(cc4c3=O)CC(C)(C)C5)c2CO)cc(Nc2cc3n(n2)CCN(C2CC2)C3)c1=O [Compound 171] | 13 | 11 |
| Cn1cc(-c2ccnc(-n3ccn4c5c(cc4c3=O)CC(C)(C)C5)c2CO)cc(Nc2ccc(C3=CCN(C4COC4)CC3)cn2)c1=O [Compound 36] | 31 | 12 |
| C[C@H]1CN(C2COC2)CCN1c1ccc(Nc2cc(-c3ccnc(-n4ccn5c6c(cc5c4=O)CC(C)(C)C6)c3CO)cn(C)c2=O)nn1 [Compound 204] | 11 | 7 |
| C[C@H]1CN(C2COC2)CCN1c1ccc(Nc2cc(-c3ccnc(-n4cnn5c6c(c(F)c5c4=O)CCCC6)c3CO)cn(C)c2=O)nc1 [Compound 190] | 29 | 40 |
| CC[C@H]1CN(C2COC2)CCN1c1ccc(Nc2cc(-c3ccnc(-n4ccn5c6c(c(F)c5c4=O)CCCC6)c3CO)cn(C)c2=O)nc1 [Compound 227] | 8 | 5 |
| C[C@H]1CN(C2COC2)CCN1c1ccc(Nc2cc(-c3ccnc(-n4cnn5c6c(cc5c4=O)CCCC6)c3CO)cn(C)c2=O)nc1 [Compound 184] | 77 | 80 |
| C[C@@H]1CN(c2ccc(Nc3cc(-c4ccnc(-n5ccn6c7c(cc6c5=O)CC(C)(C)C7)c4CO)cn(C)c3=O)nn2)[C@@H](C)CN1C1COC1 [Compound 205] | 15 | 15 |
| COCCN1CCn2nc(Nc3cc(-c4ccnc(-n5ccn6c7c(cc6c5=O)CC(C)(C)C7)c4CO)cn(C)c3=O)cc2[C@H]1C [Compound 117] | 4 | 7 |
| CCn1cc(-c2ccnc(-n3ncn4c5c(cc4c3=O)CC(C)(C)C5)c2CO)cc(Nc2ccc(N3CCN(C4COC4)C[C@@H]3C)cn2)c1=O [Compound 211] | 17 | 20 |
| Cn1cc(-c2ccnc(-n3ccn4c5c(cc4c3=O)CC(C)(C)C5)c2CO)cc(Nc2ccc(C(=O)N3CCOCC3)cn2)c1=O [Compound 47] | 3 | 3 |
| C[C@H]1CN(C2COC2)CCN1c1ccc(Nc2cc(-c3ccnc(-n4ccn5c6c(cc5c4=O)CC(C)(C)C6)c3CF)cn(C)c2=O)nc1 [Compound 105] | 67 | 11 |
| C[C@H]1CN(C2COC2)CCN1c1ccc(Nc2cc(-c3ccnc(-n4ccn5c6c(c(Br)c5c4=O)CC(C)(C)C6)c3CO)cn(C)c2=O)nc1 [Compound 62] | 21 | 3 |
| COC1CN(c2ccc(Nc3cc(-c4ccnc(-n5ncn6c7c(cc6c5=O)CC(C)(C)C7)c4CO)cn(C)c3=O)nc2)C1 [Compound 139] | 39 | 11 |

| Structure (SMILES) | IC50 (BTK recombinant protein) [nM] | IC50 [1] [nM] |
| --- | --- | --- |
| C[C@H]1CN(C2COC2)CCN1c1ccc(Nc2cc(-c3ccnc(-n4ccn5c6c(cc5c4=O)CC(C)(C)C6)c3C=O)cn(C)c2=O)nc1 [Compound 72] | 58 | 97 |
| C[C@H]1COCCN1c1ccc(Nc2cc(-c3ccnc(-n4ncn5c6c(cc5c4=O)CC(C)(C)C6)c3CO)cn(C)c2=O)nn1 [Compound 212] | 10 | 11 |
| C[C@H]1CN(C2COC2)CCN1c1ccc(Nc2cc(-c3ccnc(-n4ncn5c6c(cc5c4=O)CCCCC6)c3CO)cn(C)c2=O)nc1 [Compound 150] | 12 | 12 |
| C[C@H]1CN(C2COC2)CCN1c1ccc(Nc2cc(-c3ccnc(-n4ncn5c(cc6ccccc65)c4=O)c3CO)cn(C)c2=O)nc1 [Compound 151] | 2 | 28 |
| C[C@H]1CN(C2COC2)CCN1c1ccc(Nc2cc(-c3ccnc(-n4ccn5c(cc6ccccc65)c4=O)c3CO)nn(C)c2=O)nc1 [Compound 76] | 123 | 60 |
| COc1ccc(Nc2cc(-c3ccnc(-n4ccn5c6c(cc5c4=O)CC(C)(C)C6)c3CO)cn(C)c2=O)nn1 [Compound 169] | 60 | 30 |
| C[C@H]1COCCN1c1ccc(Nc2cc(-c3ccnc(-n4ncn5c6c(cc5c4=O)CC(C)(C)C6)c3CO)cn(C)c2=O)nc1 [Compound 196] | 2 | 7 |
| COCCN1CCn2nc(Nc3cc(-c4ccnc(-n5ncn6c7c(cc6c5=O)CCCC7)c4CO)cn(C)c3=O)cc2C1 [Compound 163] | 8 | 34 |
| C[C@H]1c2cc(Nc3cc(-c4ccnc(-n5ccn6c7c(cc6c5=O)CC(C)(C)C7)c4CO)cn(C)c3=O)nn2CCN1C1COC1 [Compound 136] | 4 | 5 |
| C[C@@H]1CN(c2ccc(Nc3cc(-c4ccnc(-n5ccn6c7c(c(F)c6c5=O)CCCC7)c4CO)cn(C)c3=O)nc2)[C@@H](C)CN1C1COC1 [Compound 218] | 6 | 12 |
| [2H]C(O)c1c(-c2cc(Nc3ccc(N4CCN(C5COC5)C[C@@H]4C)cn3)c(=O)n(C)c2)ccnc1-n1ccn2c3c(cc2c1=O)CC(C)(C)C3 (stereo partly shown) [Compound 100] | 5 | 2 |
| Cn1cc(-c2ccnc(-n3ncn4c5c(cc4c3=O)CC(C)(C)C5)c2CO)cc(Nc2cc3n(n2)CCN(C2COC2)C3)c1=O [Compound 122] | < 1 | 7 |
| C[C@@H]1CN(C2COC2)CCN1c1ccc(Nc2cc(-c3ccnc(-n4ccn5c6c(cc5c4=O)CC(C)(C)C6)c3CO)cn(C)c2=O)nc1 [Compound 80] | 5 | 2 |
| COc1ccc(Nc2cc(-c3ccnc(-n4ncn5c6c(cc5c4=O)CC(C)(C)C6)c3CO)cn(C)c2=O)nc1 [Compound 133] | 33 | 13 |
| C[C@H]1CN(C2COC2)CCN1c1ccc(Nc2cc(-c3ncnc(-n4ccn5c6c(cc5c4=O)CC(C)(C)C6)c3CO)cn(C)c2=O)nc1 [Compound 65] | 14 | 2 |
| COCC(C)N1CCn2nc(Nc3cc(-c4ccnc(-n5ccn6c7c(cc6c5=O)CC(C)(C)C7)c4CO)cn(C)c3=O)cc2C1 (stereo not shown) [Compound 115] | 12 | 10 |
| Cn1cc(-c2ccnc(-n3ccn4c5c(cc4c3=O)CC(C)(C)C5)c2CO)cc(Nc2ccccc2)c1=O [Compound 77] | 441 | 132 |
| COCCN1CCN(c2ccc(Nc3cc(-c4ccnc(-n5ncn6c7c(cc6c5=O)CC(C)(C)C7)c4CO)cn(C)c3=O)nc2)C(C)(C)C1 [Compound 220] | 5 | 16 |
| C[C@H]1CN(C2COC2)CCN1c1ccc(Nc2cc(-c3ccnc(-n4ccn5c(cc6cccc(F)c65)c4=O)c3CO)cn(C)c2=O)nc1 [Compound 52] | 18 | 18 |
| C[C@@H]1CN(c2ccc(Nc3cc(-c4ccnc(-n5ncn6c7c(c(F)c6c5=O)CCCC7)c4CO)cn(C)c3=O)nc2)[C@@H](C)CN1C1COC1 [Compound 221] | 8 | 12 |
| Cn1cc(-c2ccnc(-n3ccn4c5c(cc4c3=O)CC(C)(C)C5)c2CO)cc(Nc2ccc(NC3CCCOC3)cn2)c1=O (stereo not shown) [Compound 45] | 11 | 5 |
| Cn1cc(-c2ccnc(-n3ccn4c5c(cc4c3=O)CC(C)(C)C5)c2CO)cc(Nc2ccc(C3CN(C4COC4)C3)cn2)c1=O [Compound 140] | < 1 | 11 |
| CCCn1cc(Nc2cc(-c3ccnc(-n4ccn5c6c(cc5c4=O)CC(C)(C)C6)c3CO)cn(C)c2=O)cn1 [Compound 174] | 2 | 44 |
